According to patent publication US20240400555A1 (Initial Therapeutics, Inc., priority 2023, published 2024):

Tested on: MV-4-11 cells
Test: Cell Viability Assay in MV-4-11 Cells
Type: cell-based
Conditions: Homo sapiens, MV4-11, 72 h, MV-4-11 cells, 72 h, Cell-Titer Glo; read-out: IC50
How it was run: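 Luminescent ATP read-out (CellTiter-Glo) after 72 h compound treatment of MV-4-11 leukaemia cells (7,000 per well, IMDM plus 10% FBS). Values expressed relative to DMSO control and derived by four-parameter non-linear regression.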

| IC50 [nM] | Compound |
| --- | --- |
| 600 | O=C(c1ccc(-n2nnc3cccnc32)cc1F)N(c1nccc2sc(C#CCCCO)cc12)[C@@H]1CCCNC1 [Example 844, (R)-4-(3H-[1,2,3]triazolo[4,5-b]pyridin-3-yl)-2-fluoro-N-(2-(5-hydroxypent-1-yn-1-yl)thieno[3,2-c]pyridin-4-yl)-N-(piperidin-3-yl)benzamide] |
| 60 | [2H]C([2H])([2H])n1cc(-c2ccc(C(=O)N(c3nccc4cccc(C)c34)[C@@H]3CCCNC3)c(F)c2)nn1 [Example 890, 2-fluoro-N-(8-methyl-1-isoquinolyl)-N-[(3R)-3-piperidyl]-4-[1-(trideuteriomethyl)triazol-4-yl]benzamide] |
| 190 | Cc1cccc2ccnc(N(C(=O)c3ccc(Nc4ncc(N)cn4)cc3F)[C@@H]3CCCNC3)c12 [Example 410, (R)-4-((5-aminopyrimidin-2-yl)amino)-2-fluoro-N-(8-methylisoquinolin-1-yl)-N-(piperidin-3-yl)benzamide] |
| 79 | Cc1csc2ccnc(N(C(=O)c3ccc(-c4cn(C)nn4)cc3)[C@@H]3CCCNC3)c12 [Example 799, (R)-4-(1-methyl-1H-1,2,3-triazol-4-yl)-N-(3-methylthieno[3,2-c]pyridin-4-yl)-N-(piperidin-3-yl)benzamide] |
| 280 | Cc1c(-c2ccc(C(=O)N(c3nccc4sc(-c5ccc(C(N)=O)cc5)cc34)[C@@H]3CCCNC3)c(F)c2)cnn1C [Example 612, (R)—N-(2-(4-carbamoylphenyl)thieno[3,2-c]pyridin-4-yl)-4-(1,5-dimethyl-1H-pyrazol-4-yl)-2-fluoro-N-(piperidin-3-yl)benzamide] |
| 74 | CCn1cc(-c2ccc(C(=O)N(c3nccc4cc(Cl)cc(C)c34)[C@@H]3CCCNC3)c(F)c2)nn1 [Example 711, N-(6-chloro-8-methyl-1-isoquinolyl)-4-(1-ethyltriazol-4-yl)-2-fluoro-N-[(3R)-3-piperidyl] benzamide] |
| 460 | Cn1cc(-c2ccc(C(=O)N(c3nccc4cc(-c5ccnc(N)c5)ccc34)[C@@H]3CCCNC3)c(F)c2)nn1 [Example 491, (R)—N-(6-(2-aminopyridin-4-yl)isoquinolin-1-yl)-2-fluoro-4-(1-methyl-1H-1,2,3-triazol-4-yl)-N-(piperidin-3-yl)benzamide] |
| 290 | Cc1cccc2ccnc(N(C(=O)c3ccc(Nc4nccc(N5CCNC(=O)C5)n4)cc3F)[C@@H]3CCCNC3)c12 [Example 938, (R)-2-fluoro-N-(8-methylisoquinolin-1-yl)-4-((4-(3-oxopiperazin-1-yl)pyrimidin-2-yl)amino)-N-(piperidin-3-yl)benzamide] |
| 220 | O=Cc1cccc(-c2cc3c(N(C(=O)c4ccc(-n5nnc6cccnc65)cc4F)[C@@H]4CCCNC4)nccc3s2)c1 [Example 467, 2-fluoro-N-[2-(3-formylphenyl)thieno[3,2-c]pyridin-4-yl]-N-[(3R)-3-piperidyl]-4-(triazolo[4,5-b]pyridin-3-yl)benzamide] |
| 52 | COCCn1cc(-c2ccc(C(=O)N(c3nccc4cc(F)cc(C)c34)[C@@H]3CCCNC3)c(F)c2)nn1 [Example 850, 2-fluoro-N-(6-fluoro-8-methyl-1-isoquinolyl)-4-[1-(2-methoxyethyl)triazol-4-yl]-N-[(3R)-3-piperidyl]benzamide] |
| 970 | Cc1ncnc(C)c1-c1ccc(C(=O)N(c2nccc3cccc(C)c23)[C@@H]2CCCNC2)c(F)c1 [Example 354, 4-(4,6-dimethylpyrimidin-5-yl)-2-fluoro-N-(8-methyl-1-isoquinolyl)-N-[(3R)-3-piperidyl]benzamide] |
| 79 | CCn1cc(-c2ccc(C(=O)N(c3nccc4scc(C)c34)[C@@H]3CCCNC3)c(F)c2)nn1 [Example 704, (R)-4-(1-ethyl-1H-1,2,3-triazol-4-yl)-2-fluoro-N-(3-methylthieno[3,2-c]pyridin-4-yl)-N-(piperidin-3-yl)benzamide] |
| 230 | Cc1cc(F)cc2ccnc(N(C(=O)c3ccc(-c4cn(C)nn4)cn3)[C@@H]3CCCNC3)c12 [Example 785, (R)—N-(6-fluoro-8-methylisoquinolin-1-yl)-5-(1-methyl-1H-1,2,3-triazol-4-yl)-N-(piperidin-3-yl)picolinamide] |
| 1100 | Cc1cccc2ccnc(N(C(=O)c3cccc(C#CCCO)c3)[C@@H]3CCCNC3)c12 [Example 512, (R)-3-(4-hydroxybut-1-yn-1-yl)-N-(8-methylisoquinolin-1-yl)-N-(piperidin-3-yl)benzamide] |
| 82 | Cc1nnc(-c2ccc(C(=O)N(c3nccc4scc(C)c34)[C@@H]3CCCNC3)cc2)s1 [Example 798, (R)-4-(5-methyl-1,3,4-thiadiazol-2-yl)-N-(3-methylthieno[3,2-c]pyridin-4-yl)-N-(piperidin-3-yl)benzamide] |
| 240 | O=C(c1ccc(-n2nnc3cccnc32)cc1F)N(c1nccc2sc(Cc3cccnc3)cc12)[C@@H]1CCCNC1 [Example 465, 2-fluoro-N-[(3R)-3-piperidyl]-N-[2-(3-pyridylmethyl)thieno[3,2-c]pyridin-4-yl]-4-(triazolo[4,5-b]pyridin-3-yl)benzamide] |

| IC50 [nM] | Compound |
| --- | --- |
| 160 | Cc1nnc(-c2ccc(C(=O)N(c3nccc4cccc(C)c34)[C@@H]3CCCNC3)cc2)s1 [Example 792, (R)-4-(5-methyl-1,3,4-thiadiazol-2-yl)-N-(8-methylisoquinolin-1-yl)-N-(piperidin-3-yl) benzamide] |
| 55 | CCc1nnc(-c2ccc(C(=O)N(c3nccc4sc(C)nc34)[C@@H]3CCCNC3)c(F)c2)s1 [Example 667, (R)-4-(5-ethyl-1,3,4-thiadiazol-2-yl)-2-fluoro-N-(2-methylthiazolo[4,5-c]pyridin-4-yl)-N-(piperidin-3-yl)benzamide] |
| 230 | NC(=O)c1ccc(-c2cc3c(N(C(=O)c4ccc(-n5nnc6cccnc65)cc4F)[C@@H]4CCCNC4)nccc3s2)cc1F [Example 567, 2-fluoro-4-[4-[[2-fluoro-4-(triazolo[4,5-b]pyridin-3-yl)benzoyl]-[(3R)-3-piperidyl]amino]thieno[3,2-c]pyridin-2-yl]benzamide] |
| > 10000 | Cc1cccc2ccnc(N(C(=O)c3ccc(-c4cn(C)nc4N)cc3F)[C@@H]3CCCNC3)c12 [Example 391, 4-(3-amino-1-methyl-pyrazol-4-yl)-2-fluoro-N-(8-methyl-1-isoquinolyl)-N-[(3R)-3-piperidyl] benzamide] |
| 870 | Cn1cc(-c2ccc(C(=O)N(c3nccc4sc(-c5cnccn5)cc34)[C@@H]3CCCNC3)c(F)c2)nn1 [Example 482] |
| 63 | Cc1cccc2ccnc(N(C(=O)c3ccc(Nc4nccc(N5CCS(=O)(=O)CC5)n4)cc3F)[C@@H]3CCCNC3)c12 [Example 935, (R)-4-((4-(1,1-dioxidothiomorpholino)pyrimidin-2-yl)amino)-2-fluoro-N-(8-methylisoquinolin-1-yl)-N-(piperidin-3-yl)benzamide] |
| 210 | Cc1cccc2ccnc(N(C(=O)c3ccc(C#N)c(-c4ccc(-c5cccnc5)cc4)c3)[C@@H]3CCCNC3)c12 [Example 328, 4-cyano-N-(8-methyl-1-isoquinolyl)-N-[(3R)-3-piperidyl]-3-[4-(3-pyridyl)phenyl]benzamide] |
| 1200 | CC(C)Cn1cc(-c2cc3c(N(C(=O)c4ccc(-n5nnc6cccnc65)cc4F)[C@@H]4CCCNC4)nccc3s2)nn1 [Example 415, 2-fluoro-N-[2-(1-isobutyltriazol-4-yl)thieno[3,2-c]pyridin-4-yl]-N-[(3R)-3-piperidyl]-4-(triazolo[4,5-b]pyridin-3-yl)benzamide] |
| 220 | Cn1ccc(-c2cc3c(N(C(=O)c4ccc(-n5nnc6cccnc65)cc4F)[C@@H]4CCCNC4)nccc3s2)n1 [Example 438, 2-fluoro-N-[2-(1-methylpyrazol-3-yl)thieno[3,2-c]pyridin-4-yl]-N-[(3R)-3-piperidyl]-4-(triazolo[4,5-b]pyridin-3-yl)benzamide] |
| 80 | Cc1nnc(-c2ccc(C(=O)N(c3nccc4cc(Cl)cc(C)c34)[C@@H]3CCCNC3)cn2)s1 [Example 709, (R)—N-(6-chloro-8-methylisoquinolin-1-yl)-6-(5-methyl-1,3,4-thiadiazol-2-yl)-N-(piperidin-3-yl)nicotinamide] |
| 300 | Cc1cccc2ccnc(N(C(=O)N3CCCC(N4C(=O)c5ccccc5C4=O)C3)[C@@H]3CCCNC3)c12 (stereo partly drawn) [Example 345, 3-(1,3-dioxoisoindolin-2-yl)-N-(8-methylisoquinolin-1-yl)-N—((R)-piperidin-3-yl)piperidine-1-carboxamide] |
| 1200 | Cn1cc(-c2ccc(C(=O)N(c3nccc4sc(-c5ccc(C(N)=O)cc5)cc34)[C@@H]3CCCNC3)c(F)c2)nn1 [Example 840, N-[2-(4-carbamoylphenyl)thieno[3,2-c]pyridin-4-yl]-2-fluoro-4-(1-methyltriazol-4-yl)-N-[(3R)-3-piperidyl] benzamide] |
| 84 | Cc1cn(-c2ccc(C(=O)N(c3nccc4c(F)ccc(C)c34)[C@@H]3CCCNC3)c(F)c2)nn1 [Example 655, (R)-2-fluoro-N-(5-fluoro-8-methylisoquinolin-1-yl)-4-(4-methyl-1H-1,2,3-triazol-1-yl)-N-(piperidin-3-yl)benzamide] |
| 120 | Cc1nnc(-c2ccc(C(=O)N(c3nccc4cc(F)cc(C)c34)[C@@H]3CCCNC3)c(F)c2)s1 [Example 833, (R)-2-fluoro-N-(6-fluoro-8-methylisoquinolin-1-yl)-4-(5-methyl-1,3,4-thiadiazol-2-yl)-N-(piperidin-3-yl)benzamide] |
| 250 | Cc1cccc2ccnc(N(C(=O)c3ccc(Nc4nccc(C5=CCNCC5)n4)cc3F)[C@@H]3CCCNC3)c12 [Example 665, (R)-2-fluoro-N-(8-methylisoquinolin-1-yl)-N-(piperidin-3-yl)-4-((4-(1,2,3,6-tetrahydropyridin-4-yl)pyrimidin-2-yl)amino)benzamide] |
| 340 | Cn1cc(-c2ccc(C(=O)N(c3nccc4sc(-c5ccnc(N)c5)cc34)[C@@H]3CCCNC3)c(F)c2)nn1 [Example 478, (R)—N-(2-(2-aminopyridin-4-yl)thieno[3,2-c]pyridin-4-yl)-2-fluoro-4-(1-methyl-1H-1,2,3-triazol-4-yl)-N-(piperidin-3-yl)benzamide] |
